Legend:
[1] = tested on: Dimethylbenzene Induced Mouse Ear Swelling; experiment: Dimethylbenzene induced mouse ear swelling
[2] = tested on: Body Twist Reaction Induced by Acetic Acid; experiment: Acetic acid induced body twist reaction (chemical stimuli induced pain); settings: mouse
[3] = tested on: Carrageenan Induced Rat Foot Swelling; experiment: Carrageenan induced rat foot swelling; assay type: in vivo
Source text: Divide the rats randomly into five groups, with each group consisting of ten rats. […] Use carrageenan induced inflammation to cause rat plantar swelling.

[4] = tested on: Adjuvant Induced Rat Foot Swelling; experiment: Adjuvant induced rat foot swelling (primary and secondary inflammation); assay type: in vivo
[5] = tested on: Rat Gastric Mucosa Ulcer; experiment: Side effects of causing rat gastric mucosa ulcer; settings: four successive days

**Q.** How did the “Rate of Ear Swelling (x ± s)” value ([1]; 8 mg/kg oral) turn out when `Cc1cnc(NC(=O)C2=C(O)c3ccccc3S(=O)(=O)N2C)s1` [Meloxicam, reference compound] was run?
**A.** 0.43 ± 0.36

**Q.** And the “inhibition rate (ear swelling)” value ([1]; 8 mg/kg oral)?
**A.** 43%

**Q.** What about the “Numbers of Occurrence of Body Twist (x ± s)” value (“Numbers” for short) ([2]; 8.0 mg/kg oral) of the same compound?
**A.** 18.11 ± 14.37

**Q.** What about the “Percentage of Body Twist” value ([2]; 8.0 mg/kg oral) of the same compound?
**A.** 100%

**Q.** With `Cc1cnc(NC(=O)C2=C(O)c3sc(Cl)cc3S(=O)(=O)N2C)s1` [Example 1, 6-chlorine-4-hydroxy-2-methyl-N-[2′-(5′-methyl)thiazolyl]-2H-thieno-[2,3-e]-1,2-thiazine-3-formamide-1,1-dioxide] as the compound, how does the “Change in the Foot Volume after Giving the Carrageenan” value (shortened to “Change in the Foot Volume”) ([3]; 1.0 mg/kg, five hours) read?
**A.** 0.83 ± 0.28

**Q.** What about the “Change in the Foot Volume” value ([3]; 1.0 mg/kg, four hours) of the same compound?
**A.** 0.76 ± 0.28

**Q.** And the “Change in the Foot Volume” value ([3]; 1.0 mg/kg, one hour)?
**A.** 0.25 ± 0.15

**Q.** What about the “Change in the Foot Volume” value ([3]; 1.0 mg/kg, six hours) of the same compound?
**A.** 0.83 ± 0.25

**Q.** And the “Change in the Foot Volume” value ([3]; 1.0 mg/kg, three hours)?
**A.** 0.66 ± 0.34

**Q.** And the “Change in the Foot Volume” value ([3]; 1.0 mg/kg, two hours)?
**A.** 0.56 ± 0.27

**Q.** And the “Change in the Foot Volume” value ([3]; 2.0 mg/kg, five hours)?
**A.** 0.79 ± 0.25

**Q.** What about the “Change in the Foot Volume” value ([3]; 2.0 mg/kg, four hours) of the same compound?
**A.** 0.70 ± 0.25

**Q.** What about the “Change in the Foot Volume” value ([3]; 2.0 mg/kg, one hour) of the same compound?
**A.** 0.24 ± 0.11

**Q.** What about the “Change in the Foot Volume” value ([3]; 2.0 mg/kg, six hours) of the same compound?
**A.** 0.80 ± 0.21

**Q.** What about the “Change in the Foot Volume” value ([3]; 2.0 mg/kg, three hours) of the same compound?
**A.** 0.63 ± 0.54

**Q.** And the “Change in the Foot Volume” value ([3]; 2.0 mg/kg, two hours)?
**A.** 0.39 ± 0.17

**Q.** And the “Change in the Foot Volume” value ([3]; 4.0 mg/kg, five hours)?
**A.** 0.60 ± 0.31

**Q.** And the “Change in the Foot Volume” value ([3]; 4.0 mg/kg, four hours)?
**A.** 0.59 ± 0.30

**Q.** And the “Change in the Foot Volume” value ([3]; 4.0 mg/kg, one hour)?
**A.** 0.29 ± 0.20

**Q.** And the “Change in the Foot Volume” value ([3]; 4.0 mg/kg, six hours)?
**A.** 0.64 ± 0.24

**Q.** And the “Change in the Foot Volume” value ([3]; 4.0 mg/kg, three hours)?
**A.** 0.50 ± 0.20

**Q.** What about the “Change in the Foot Volume” value ([3]; 4.0 mg/kg, two hours) of the same compound?
**A.** 0.37 ± 0.22

**Q.** What about the “effectiveness on carrageenan induced plantar swelling compared with Meloxicam” value ([3]; 1, 2, 4 mg/kg vs Meloxicam 4 mg/kg) of the same compound?
**A.** substantially more effective than the positive medicine Meloxicam

**Q.** What about the “Rate of the Change in the Volume of Left and Right Feet after Giving Adjuvant” value (shortened to “Rate of the Change”) ([4]; 1.0 mg/kg oral, 18 hours) of the same compound?
**A.** 0.77 ± 0.28

**Q.** And the “Rate of the Change” value ([4]; 1.0 mg/kg oral, 24 hours)?
**A.** 0.75 ± 0.24

**Q.** What about the “Rate of the Change” value ([4]; 1.0 mg/kg oral, 3 days) of the same compound?
**A.** 0.74 ± 0.28

**Q.** And the “Rate of the Change” value ([4]; 1.0 mg/kg oral, 8 days)?
**A.** 0.75 ± 0.29

**Q.** What about the “Rate of the Change” value ([4]; 1.0 mg/kg oral, 19 days) of the same compound?
**A.** 0.97 ± 0.19

**Q.** What about the “Rate of the Change” value ([4]; 2.0 mg/kg oral, 18 hours) of the same compound?
**A.** 0.62 ± 0.10

**Q.** What about the “Rate of the Change” value ([4]; 2.0 mg/kg oral, 24 hours) of the same compound?
**A.** 0.60 ± 0.10

**Q.** And the “Rate of the Change” value ([4]; 2.0 mg/kg oral, 3 days)?
**A.** 0.61 ± 0.13

**Q.** What about the “Rate of the Change” value ([4]; 2.0 mg/kg oral, 8 days) of the same compound?
**A.** 0.60 ± 0.14

**Q.** And the “Rate of the Change” value ([4]; 2.0 mg/kg oral, 19 days)?
**A.** 0.69 ± 1.10

**Q.** What about the “Rate of the Change” value ([4]; 4.0 mg/kg oral, 18 hours) of the same compound?
**A.** 0.65 ± 0.08

**Q.** What about the “Rate of the Change” value ([4]; 4.0 mg/kg oral, 24 hours) of the same compound?
**A.** 0.65 ± 0.12

**Q.** What about the “Rate of the Change” value ([4]; 4.0 mg/kg oral, 3 days) of the same compound?
**A.** 0.53 ± 0.13

**Q.** And the “Rate of the Change” value ([4]; 4.0 mg/kg oral, 8 days)?
**A.** 0.63 ± 0.16

**Q.** And the “Rate of the Change” value ([4]; 4.0 mg/kg oral, 19 days)?
**A.** 0.72 ± 1.12

**Q.** What about the “inhibition of the primary and secondary inflammation induced by adjuvant” value ([4]; 1, 2, 4 mg/kg oral) of the same compound?
**A.** dosage dependent inhibition

**Q.** And the “Rate of Ear Swelling (x ± s)” value ([1]; 2 mg/kg oral)?
**A.** 0.56 ± 0.35

**Q.** What about the “inhibition rate (ear swelling)” value ([1]; 2 mg/kg oral) of the same compound?
**A.** 56%

**Q.** And the “Rate of Ear Swelling (x ± s)” value ([1]; 4 mg/kg oral)?
**A.** 0.67 ± 0.43

**Q.** What about the “inhibition rate (ear swelling)” value ([1]; 4 mg/kg oral) of the same compound?
**A.** 67%

**Q.** And the “Rate of Ear Swelling (x ± s)” value ([1]; 8 mg/kg oral)?
**A.** 0.81 ± 0.26

**Q.** And the “inhibition rate (ear swelling)” value ([1]; 8 mg/kg oral)?
**A.** 81%

**Q.** And the “Ulcer Occurring Rate” value ([5]; 1 mg/kg oral)?
**A.** 0%

**Q.** What about the “Ulcer Occurring Rate” value ([5]; 2 mg/kg oral) of the same compound?
**A.** 30%

**Q.** And the “Ulcer Occurring Rate” value ([5]; 4 mg/kg oral)?
**A.** 80%

**Q.** What about the “Numbers” value ([2]; 2.0 mg/kg oral) of the same compound?
**A.** 14.78 ± 6.38

**Q.** And the “Percentage of Body Twist” value ([2]; 2.0 mg/kg oral)?
**A.** 90%

**Q.** What about the “Numbers” value ([2]; 4.0 mg/kg oral) of the same compound?
**A.** 10.78 ± 8.15

**Q.** And the “Percentage of Body Twist” value ([2]; 4.0 mg/kg oral)?
**A.** 80%

**Q.** What about the “Numbers” value ([2]; 8.0 mg/kg oral) of the same compound?
**A.** 2.78 ± 3.49

**Q.** What about the “Percentage of Body Twist” value ([2]; 8.0 mg/kg oral) of the same compound?
**A.** 60%
